pIC50: −log10 of the molar value. Values belong to the compound of their own block, whether it stands above or below them.
Columns and labels:
[1] = biological target: T1, EML4-ALK fusion protein v1 (Homo sapiens, UniProt Q9UM73, D1529E/I1461V/K1491R); experiment: Inhibitory effect of compounds against the in vitro kinase activity of EML4-ALK fusion protein v1, single concentration (Test Example 12(3)); assay type: biochemical; conditions: for inhibition at 10 µM: final concentration 10 μM
T1 construct: FLAG (N); made in house
T1 sequence (Q9UM73 with tags, fused parts or gaps I1461V/K1491R/D1529E): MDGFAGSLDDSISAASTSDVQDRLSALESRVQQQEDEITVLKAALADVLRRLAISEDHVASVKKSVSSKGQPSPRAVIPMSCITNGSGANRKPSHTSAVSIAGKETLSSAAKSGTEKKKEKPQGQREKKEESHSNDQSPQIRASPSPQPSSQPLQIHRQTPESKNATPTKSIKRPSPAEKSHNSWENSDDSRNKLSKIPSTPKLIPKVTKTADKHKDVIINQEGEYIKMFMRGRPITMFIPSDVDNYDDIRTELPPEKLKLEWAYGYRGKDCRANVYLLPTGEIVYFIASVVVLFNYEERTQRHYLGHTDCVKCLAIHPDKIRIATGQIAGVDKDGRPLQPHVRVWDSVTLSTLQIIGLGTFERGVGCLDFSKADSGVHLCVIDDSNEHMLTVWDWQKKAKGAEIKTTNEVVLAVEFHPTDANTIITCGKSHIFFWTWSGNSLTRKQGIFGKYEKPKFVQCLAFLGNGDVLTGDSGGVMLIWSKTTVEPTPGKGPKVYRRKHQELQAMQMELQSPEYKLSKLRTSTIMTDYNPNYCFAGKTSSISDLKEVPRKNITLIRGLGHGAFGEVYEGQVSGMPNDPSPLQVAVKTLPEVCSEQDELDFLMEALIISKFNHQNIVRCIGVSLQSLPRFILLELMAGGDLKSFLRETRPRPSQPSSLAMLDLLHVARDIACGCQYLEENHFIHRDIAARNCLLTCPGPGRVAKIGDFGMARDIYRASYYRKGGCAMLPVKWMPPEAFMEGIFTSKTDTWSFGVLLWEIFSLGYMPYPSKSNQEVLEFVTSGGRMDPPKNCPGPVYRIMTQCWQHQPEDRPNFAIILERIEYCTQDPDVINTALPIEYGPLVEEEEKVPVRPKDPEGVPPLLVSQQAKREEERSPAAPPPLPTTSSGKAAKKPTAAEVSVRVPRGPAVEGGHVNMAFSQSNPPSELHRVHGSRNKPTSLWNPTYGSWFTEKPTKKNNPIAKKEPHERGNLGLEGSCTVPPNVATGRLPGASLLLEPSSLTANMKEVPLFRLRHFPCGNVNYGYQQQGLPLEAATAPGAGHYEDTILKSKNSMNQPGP
From the text: (§1) N-terminally FLAG-tagged EML4-ALK fusion protein v1 was inserted into a vector pMX-iresCD8 capable of co-expression of insert cDNA and cell surface antigen CD8 (J. Biol. Chem., 2001, vol. 276, p. 39012-39020) to create a vector FLAG-EML4-ALKv1/pMX-iresCD8 expressing both FLAG-EML4-ALKv1 and CD8. FLAG-EML4-ALKv1/pMX-iresCD8 was used to create a recombinant retrovirus in the same manner as described above and infected into mouse lymphoid cell line BA/F3 cells. Using a magnetic bead reagent for cell separation and a purification column (anti-CD8 monoclonal antibody immobilized on magnetic beads and a MiniMACS purification column; both are products of Miltenyi Biotec Inc.), cell surface CD8-expressing cells were purified conveniently. […] After washing 3 times with PBS, the cells were lysed in a lysis solution (50 mM Tris.HCl (pH 7.4), 150 mM NaCl, 1% Triton X100, 5 mM EDTA, 5 mM EGTA, 1 mM NaVO4, 1 mM DTT and protease inhibitor cocktail complete). The EML4-ALK fusion protein v1 present in the supernatant obtained after centrifugation was purified using ANTI-FLAG M2 Affinity Gel (SIGMA-ALDRICH Inc.) according to the method described in the product information document.
(§2) The EML4-ALK fusion protein v1 purified as above was investigated for its phosphorylation activity toward a peptide substrate using a kinase activity detection kit (HTRF KinEASE-TK; Cisbio Inc.). Using TK substrate 1, which was included in the kit, as the substrate, and after adding no ATP or 100 μM ATP, the mixtures were reacted at room temperature for 1 hour, and the count of HTRF was detected as recommended by the Kits manufacturer.

[2] = system: v1 expressing 3T3 cells (tumor); experiment: Antitumor effect on v1 expressing 3T3 cells inoculated in nude mice (Test Example 13); assay type: in vivo; conditions: BALB/c nude mice
Description: 3×10^6 cells of v1 expressing 3T3 cells suspended in PBS were inoculated subcutaneously by injection to the back of 5 weeks old male BALB/c nude mice (Charles River Japan, Inc.). […] Administrations were performed once a day for 14 days, and body weight and tumor size were measured every other day. Tumor volume was calculated using the following formula.
[Tumor volume (mm^3)]=[Tumor major axis (mm)]×[tumor minor axis (mm)]^2×0.5
The antitumor effect of compound D was investigated by the similar procedure with the following exceptions. The administration of the compound was started after 6 days of the inoculation and carried out once a day for 10 days.

[3] = biological target: T2, Mutant EGFR (L858R) protein (Homo sapiens, UniProt P00533, L858R); experiment: Inhibitory activity against the kinase activity of mutant EGFR (L858R) protein (Test Example 2); assay type: biochemical; conditions: ATP 5 μM, reaction 1 hour, HTRF KinEASE-TK
T2 construct: purchased Cana Biosciences Inc., Japan (sic; Carna Biosciences)
T2 sequence (P00533 25-1210 L858R): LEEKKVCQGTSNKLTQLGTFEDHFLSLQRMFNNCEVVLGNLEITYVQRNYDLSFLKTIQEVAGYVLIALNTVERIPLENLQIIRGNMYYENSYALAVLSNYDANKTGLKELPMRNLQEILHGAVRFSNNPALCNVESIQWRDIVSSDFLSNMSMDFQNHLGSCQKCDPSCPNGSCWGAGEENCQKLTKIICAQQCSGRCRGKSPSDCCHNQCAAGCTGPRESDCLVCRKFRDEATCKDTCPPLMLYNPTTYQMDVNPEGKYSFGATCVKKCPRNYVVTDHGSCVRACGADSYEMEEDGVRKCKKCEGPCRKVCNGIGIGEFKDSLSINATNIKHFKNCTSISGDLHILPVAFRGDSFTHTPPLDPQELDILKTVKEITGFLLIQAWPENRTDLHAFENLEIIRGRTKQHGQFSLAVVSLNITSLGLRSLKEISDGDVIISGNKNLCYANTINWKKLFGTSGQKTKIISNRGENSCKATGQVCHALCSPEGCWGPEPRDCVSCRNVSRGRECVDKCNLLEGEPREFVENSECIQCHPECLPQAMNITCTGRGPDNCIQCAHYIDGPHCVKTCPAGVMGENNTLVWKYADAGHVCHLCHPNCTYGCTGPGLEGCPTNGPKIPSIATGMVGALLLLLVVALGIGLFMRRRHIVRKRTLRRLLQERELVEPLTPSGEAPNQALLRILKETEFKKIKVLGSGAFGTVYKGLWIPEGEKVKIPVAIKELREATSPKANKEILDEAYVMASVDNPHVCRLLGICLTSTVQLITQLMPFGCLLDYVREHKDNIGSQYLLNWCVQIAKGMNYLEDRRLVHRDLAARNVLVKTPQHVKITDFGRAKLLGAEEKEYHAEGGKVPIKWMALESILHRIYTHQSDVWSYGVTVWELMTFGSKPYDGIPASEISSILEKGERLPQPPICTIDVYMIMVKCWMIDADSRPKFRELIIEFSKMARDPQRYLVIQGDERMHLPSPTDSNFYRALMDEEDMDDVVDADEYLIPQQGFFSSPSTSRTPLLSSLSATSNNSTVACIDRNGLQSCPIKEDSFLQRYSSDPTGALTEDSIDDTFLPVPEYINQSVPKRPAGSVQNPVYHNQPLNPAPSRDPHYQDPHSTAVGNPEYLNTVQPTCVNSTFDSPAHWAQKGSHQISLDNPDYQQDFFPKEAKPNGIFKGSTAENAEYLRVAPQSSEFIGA
Description: (§3) The ATP concentration used was 5 μM. Another reaction solution was prepared to contain the enzyme protein but no test compound (in which the solvent DMSO alone was added at 0.4% in place of the test compound), followed by reaction in the same manner with or without ATP addition. […] The concentration causing 50% inhibition (IC50) was calculated for each test compound by the logistic regression method.

[4] = biological target: T1, EML4-ALK fusion protein v1; experiment: Inhibitory activity against the kinase activity of EML4-ALK fusion protein v1 (Test Example 1); assay type: biochemical; conditions: ATP 100 μM, reaction 1 hour, HTRF KinEASE-TK
Description: as §3, with “EML4-ALK fusion protein v1 (purified from BA/F3 cells expressing EML4-ALK fusion protein v1) was investigated for its phosphorylation activity toward a peptide substrate by using a kinase activity detection kit (HTRF KinEASE-TK; Cisbio Inc.). […] The ATP” for “The ATP”, “used was 100 μM. Another” for “used was 5 μM. Another”
as §1, §2

[5] = biological target: T3, MUSK (Homo sapiens, UniProt O15146); experiment: Inhibitory activity against the kinase activity of MUSK protein (Test Example 7); assay type: biochemical; parameters: purchased Carna Biosciences Inc., Japan; conditions: ATP 10 μM, reaction 1 hour, HTRF KinEASE-TK
T3 sequence (O15146 24-869): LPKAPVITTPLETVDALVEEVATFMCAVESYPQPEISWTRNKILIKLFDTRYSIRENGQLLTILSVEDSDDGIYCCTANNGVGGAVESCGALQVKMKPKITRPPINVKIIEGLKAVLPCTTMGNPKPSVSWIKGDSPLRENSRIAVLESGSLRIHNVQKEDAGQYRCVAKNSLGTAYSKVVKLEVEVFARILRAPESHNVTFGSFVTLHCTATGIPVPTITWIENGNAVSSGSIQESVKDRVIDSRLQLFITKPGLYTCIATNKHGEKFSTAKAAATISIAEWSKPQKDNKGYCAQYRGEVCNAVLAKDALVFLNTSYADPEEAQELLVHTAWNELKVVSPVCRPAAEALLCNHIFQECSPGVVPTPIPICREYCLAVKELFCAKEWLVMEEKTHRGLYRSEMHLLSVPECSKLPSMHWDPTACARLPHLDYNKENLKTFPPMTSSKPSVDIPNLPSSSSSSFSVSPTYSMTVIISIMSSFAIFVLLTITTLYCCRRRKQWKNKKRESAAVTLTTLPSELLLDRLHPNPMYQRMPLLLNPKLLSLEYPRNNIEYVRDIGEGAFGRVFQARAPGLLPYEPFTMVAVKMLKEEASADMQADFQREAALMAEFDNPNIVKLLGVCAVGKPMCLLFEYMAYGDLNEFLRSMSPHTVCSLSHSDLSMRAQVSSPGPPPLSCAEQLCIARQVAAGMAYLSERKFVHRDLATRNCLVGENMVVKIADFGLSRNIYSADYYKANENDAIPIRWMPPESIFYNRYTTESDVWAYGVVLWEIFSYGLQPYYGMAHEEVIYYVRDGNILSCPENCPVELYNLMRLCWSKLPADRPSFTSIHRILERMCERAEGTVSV
Description: as §3, with “MUSK protein (Carna Biosciences Inc., Japan) was investigated for its phosphorylation activity toward a peptide substrate by using a kinase activity detection kit (HTRF KinEASE-TK; Cisbio Inc.). […] The ATP” for “The ATP”, “used was 10 μM. Another” for “used was 5 μM. Another”

[6] = system: human non-small cell lung cancer cell line NCI-H2228 cells (EML4-ALK fusion protein-expressing cells); experiment: Inhibitory effect against anchorage-independent cell growth of NCI-H2228 cells (Test Example 3); assay type: cell-based; conditions: 120 h, spheroid plate, 5 days, CellTiter-Glo
From the text: Measurement for anchorage-independent cell growth (colony method, etc) has been known to be a system for investigating the anticancer action (pharmacological effect) of test compounds (Clinical Oncology, second edition, Cancer and Chemotherapy Publishers Inc.). In place of the colony method, there is a following method using spheroid plates for measuring the growth of non-attached cells.
(§4) In a 96-well spheroid plate (Sumilon Celltight Spheroid 96U; Sumitomo Bakelite Co., Ltd., Japan), human non-small cell lung cancer cell line NCI-H2228 cells were seeded at 2000 cells per well in RPMI1640 medium (Invitrogen) containing 10% fetal bovine serum. NCI-H2228 cells are those expressing another EML4-ALK fusion protein, which is different from the EML4-ALK fusion protein v1 because it is encoded by an EML4-ALK fusion polynucleotide whose fusion point on EML4 cDNA is different from that of the EML4-ALK fusion polynucleotide v1, but whose ALK region is the same as that of the EML4-ALK fusion polynucleotide v1. The above NCI-H2228 cells seeded in the plate were cultured overnight under 5% CO2 at 37° C., followed by addition of a test compound (final concentration: 10 μM to 1 nM). As a negative control, DMSO used as a solvent was added at the same concentration as the test compound. Then, the cells were cultured under 5% CO2 at 37° C. for 5 days. A cell counting reagent (CellTiter-Glo™ Luminescent Cell Viability Assay; Promega) was added and agitated for 20 minutes, followed by measurement with a luminometer (ML3000 microtiter plate luminometer; Dynatech Laboratories).

[7] = system: human non-small cell lung cancer cell line HCC827 cells (mutant EGFR protein-expressing cells); experiment: Inhibitory effect against anchorage-independent cell growth of HCC827 cells (Test Example 4); assay type: cell-based; conditions: 120 h, spheroid plate, 5 days, CellTiter-Glo
Description: as §4
Evaluation of Inhibitory Effect Against Anchorage-Independent Cell Growth of Human Non-Small Cell Lung Cancer Cell Line HCC827 Cells (Mutant EGFR (with Partial Deletion of Exon 19 in EGFR) Protein-Expressing Cells, American Type Culture Collection)
Evaluation was performed in the same manner as shown in Test Example 3.

inhibition at 10 µM [1]: 99%
SMILES: COc1cc2ncnc(Nc3ccc(O)c(Br)c3)c2cc1OC [Compound A, 4-[(3′-bromo-4′-hydroxyphenyl)amino]-6,7-dimethoxyquinazoline]

inhibition at 10 µM [1]: 56%
SMILES: O=C(COc1ccc(OC(F)(F)F)cc1)NCc1nc(C(=O)NCCc2cccc(Cl)c2)cs1 [Compound B, N-[2-(3-chlorophenyl)ethyl]-2-[({[4-(trifluoromethoxy)phenoxy]acetyl}amino)methyl]-1,3-thiazole-4-carboxamide]

SMILES: COc1cc(N2CCC(N3CCN(C)CC3)CC2)ccc1Nc1ncc(Cl)c(Nc2ccccc2S(=O)(=O)C(C)C)n1 [Compound C]
inhibition of the growth of v1 expressing 3T3 cells (tumor) ([2]; oral 10 mg/kg once a day for 14 days, started 7 days after inoculation): 103%

inhibition at 0.01 µM ([1]; final concentration 10 nM): 99%
SMILES: CNS(=O)(=O)c1ccccc1Nc1nc(Nc2ccc(N3CCN(C)CC3)cc2OC)ncc1Br [Compound D, 2-[(5-bromo-2-{[2-methoxy-4-(4-methylpiperazin-1-yl)phenyl]amino}pyrimidin-4-yl)amino]-N-methylbenzenesulfonamide]
inhibition of the growth of v1 expressing 3T3 cells (tumor) ([2]; once a day for 10 days, started 6 days after inoculation): 101%

melting point: 167 to 170 °C
pIC50 [3]: 7.01
pIC50 [4]: 8.64
pIC50 [5]: 5.74
pIC50 [6]: 7.19
pIC50 [7]: 6.76
SMILES: COc1cc(N2CCC(N3CCN(C)CC3)CC2)ccc1Nc1ncnc(Nc2ccccc2S(=O)(=O)N(C)C)n1 [Example 128]
